Among the data in patent publication US12275731B2, “Azaindole inhibitors of wild-type and mutant forms of LRRK2” (DANA-FARBER CANCER INSTITUTE, INC., priority 2018, dated 2025) are remaining binding values, retold here.

Residue numbers refer to the chain shown, from its start.

Common to all, as to experiment: KinomeScan profiling
Type in all cases: binding

Experiment [1] has as its target CSNK1D (Homo sapiens, UniProt P48730). The following applies: read-out: % control. A digest of the protocol:
(§1)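 At 1 μM in DMSO, compounds are run through a broad 468-member kinase panel. The luminescent read-out is normalised so that vehicle gives 100% and a positive control gives 0%; any kinase falling below 35% is treated as a target.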

For experiment [2], the target named is T1, FLT3(D835Y) (Homo sapiens, UniProt P36888, D835Y).
T1 sequence (P36888 27-993 D835Y): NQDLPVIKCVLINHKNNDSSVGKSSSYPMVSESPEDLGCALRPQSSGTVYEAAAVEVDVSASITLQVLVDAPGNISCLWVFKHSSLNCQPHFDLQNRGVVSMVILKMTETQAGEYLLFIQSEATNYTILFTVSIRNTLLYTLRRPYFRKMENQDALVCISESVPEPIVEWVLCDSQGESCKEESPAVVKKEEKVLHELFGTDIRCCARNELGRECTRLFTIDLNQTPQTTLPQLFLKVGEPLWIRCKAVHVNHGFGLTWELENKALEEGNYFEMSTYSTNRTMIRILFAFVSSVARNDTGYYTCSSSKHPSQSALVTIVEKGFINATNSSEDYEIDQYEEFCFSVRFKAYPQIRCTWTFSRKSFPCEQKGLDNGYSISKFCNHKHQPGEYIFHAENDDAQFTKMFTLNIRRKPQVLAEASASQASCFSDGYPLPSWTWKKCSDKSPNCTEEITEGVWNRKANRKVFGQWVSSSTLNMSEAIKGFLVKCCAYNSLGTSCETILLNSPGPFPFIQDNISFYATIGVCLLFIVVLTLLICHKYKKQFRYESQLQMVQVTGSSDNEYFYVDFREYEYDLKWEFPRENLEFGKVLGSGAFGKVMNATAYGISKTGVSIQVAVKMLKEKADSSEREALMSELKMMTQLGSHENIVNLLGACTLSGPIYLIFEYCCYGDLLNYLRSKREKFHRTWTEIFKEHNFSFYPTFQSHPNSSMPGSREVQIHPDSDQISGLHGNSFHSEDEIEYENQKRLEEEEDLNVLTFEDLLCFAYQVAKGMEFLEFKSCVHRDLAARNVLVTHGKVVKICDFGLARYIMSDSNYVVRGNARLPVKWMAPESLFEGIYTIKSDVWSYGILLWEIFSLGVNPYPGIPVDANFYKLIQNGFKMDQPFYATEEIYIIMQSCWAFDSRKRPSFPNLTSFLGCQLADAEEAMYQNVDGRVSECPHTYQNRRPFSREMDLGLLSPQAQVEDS
The note with it: read-out: % control. The essentials:
as §1

In experiment [3] the target is T2, FLT3(R834Q) (Homo sapiens, UniProt P36888, R834Q).
T2 sequence (P36888 27-993 R834Q): T1 sequence (P36888 27-993 D835Y) with R808Q, Y809D
The note with it: read-out: % control. The essentials:
as §1

The target in experiment [4] is PFPK5(P. falciparum) (Plasmodium falciparum, UniProt P61075). The note with it: read-out: % control. The essentials:
as §1

In experiment [5] the target is CHEK2 (Homo sapiens, UniProt O96017). The following applies: CHEK2, 1 μM; read-out: % control. A digest of the protocol:
as §1

Chain of CSNK1D (P48730 whole entry): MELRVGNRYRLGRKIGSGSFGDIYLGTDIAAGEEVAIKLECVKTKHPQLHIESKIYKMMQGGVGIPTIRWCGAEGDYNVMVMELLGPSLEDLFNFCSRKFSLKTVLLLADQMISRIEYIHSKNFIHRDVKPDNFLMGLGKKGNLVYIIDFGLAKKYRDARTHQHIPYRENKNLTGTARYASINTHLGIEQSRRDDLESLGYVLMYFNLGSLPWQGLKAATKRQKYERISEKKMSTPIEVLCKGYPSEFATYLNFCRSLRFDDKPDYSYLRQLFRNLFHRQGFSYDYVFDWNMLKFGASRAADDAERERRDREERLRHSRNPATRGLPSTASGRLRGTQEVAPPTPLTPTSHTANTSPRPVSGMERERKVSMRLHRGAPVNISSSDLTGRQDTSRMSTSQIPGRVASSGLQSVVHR
Chain of PFPK5(P. falciparum) (P61075 whole entry): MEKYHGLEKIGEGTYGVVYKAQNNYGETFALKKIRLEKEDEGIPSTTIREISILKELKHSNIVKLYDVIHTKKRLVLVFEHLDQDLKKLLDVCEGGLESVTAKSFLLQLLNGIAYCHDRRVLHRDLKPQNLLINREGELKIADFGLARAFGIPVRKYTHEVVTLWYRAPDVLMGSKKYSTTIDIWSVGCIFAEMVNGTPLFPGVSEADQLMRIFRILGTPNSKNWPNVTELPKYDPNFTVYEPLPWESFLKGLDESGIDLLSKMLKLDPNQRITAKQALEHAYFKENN
Chain of CHEK2 (O96017 whole entry): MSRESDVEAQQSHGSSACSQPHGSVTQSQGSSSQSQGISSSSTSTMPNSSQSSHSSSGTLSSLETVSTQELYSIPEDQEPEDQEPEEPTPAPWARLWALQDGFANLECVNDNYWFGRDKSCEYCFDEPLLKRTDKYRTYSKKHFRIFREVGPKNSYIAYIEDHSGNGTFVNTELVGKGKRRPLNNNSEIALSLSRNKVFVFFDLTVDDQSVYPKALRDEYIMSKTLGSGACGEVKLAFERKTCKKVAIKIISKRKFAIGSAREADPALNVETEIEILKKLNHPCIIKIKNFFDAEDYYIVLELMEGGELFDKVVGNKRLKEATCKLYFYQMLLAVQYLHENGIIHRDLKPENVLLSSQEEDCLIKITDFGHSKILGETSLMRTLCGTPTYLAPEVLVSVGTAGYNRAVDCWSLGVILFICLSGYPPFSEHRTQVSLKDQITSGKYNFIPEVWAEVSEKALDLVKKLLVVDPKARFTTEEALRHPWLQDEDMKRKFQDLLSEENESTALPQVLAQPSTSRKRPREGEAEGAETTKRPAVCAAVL

Take `CNc1c(-c2cnn([C@H]3CCN(C(C)=O)C[C@@H]3F)c2)cnc2[nH]cc(Cl)c12` [Compound 77, 1-((3S,4S)-4-(4-(3-chloro-4-(methylamino)-1H-pyrrolo[2,3-b]pyridin-5-yl)-1H-pyrazol-1-yl)-3-fluoropiperidin-1-yl)ethan-1-one]: the remaining binding at 1 µM in experiment [1] stood at 84%; in experiment [2] it was 9.7%; in experiment [3], 45%; in experiment [4] it was 100%; in experiment [5], 56%.

For the compound `CNc1c(-c2ccc(C(=O)N3CCC(N4CCOCC4)CC3)cc2)cnc2[nH]cc(Cl)c12` [Compound 96, (4-(3-chloro-4-(methylamino)-1H-pyrrolo[2,3-b]pyridin-5-yl)phenyl)(4-morpholinopiperidin-1-yl)methanone], the remaining binding at 1 µM in experiment [1] worked out at 90%; in experiment [2], 11%; in experiment [3], 52%; in experiment [4], 100%; in experiment [5] it was 22%.

For `O=C(c1ccc(-c2cnc3[nH]cc(Cl)c3c2NC2CCCC2)cc1)N1CCC(N2CCOCC2)CC1` [Compound 101, (4-(3-chloro-4-(cyclopentylamino)-1H-pyrrolo[2,3-b]pyridin-5-yl)phenyl)(4-morpholinopiperidin-1-yl)methanone], the remaining binding at 1 µM in experiment [1] came to 92%; in experiment [2], 33%; in experiment [3], 75%; in experiment [4] it was 100%; in experiment [5], 92%.
